According to patent US20240165123A1, “USE OF A COMPOUND CONTAINING A TRICYCLIC HETEROARYL GROUP” (CSPC Zhongqi Pharmaceutical Technology (Shijiazhuang) Co., …, priority 2021, published 2024):

Key:
[1] = system: OXA-induced Balb/c mouse atopic dermatitis model; assay: Pharmacodynamic test in the OXA-induced mouse atopic dermatitis model; type: in vivo, female Balb/c mice
Description: The purpose of this test was to evaluate the pharmacodynamics of Compound (I) in the OXA-induced Balb/c mouse atopic dermatitis model. Repeated OXA stimulation of the dorsal skin of mice could produce a long-term inflammatory reaction. This model was closer to the clinical skin inflammation and was a common model for screening and evaluating compounds with anti-inflammatory activity.
Female Balb/c mice aged 8-9 weeks, number: 70
According to the body weight of animals in each group before administration, they were randomly divided into 7 groups with 10 animals in each group.
OXA induction was performed on the 7th day. The induction mode was to apply 5% OXA (dissolved in the acetone/olive oil (4/1) solvent) to the back of mice near the neck in an amount of 10 μL (1.5 cm×1.5 cm). Mice in the normal control group were applied with 10 μL of the acetone/olive oil (4/1) solvent in the same way. From the 1st da to 22nd day, the immunostimulation was performed, and 100 μL of 0.1% OXA (dissolved in the acetone/olive oil (4/1) solvent) was evenly applied on the back of mice near the neck. The application was performed every two days. Mice in the normal control group were applied with 100 μL of the acetone/olive oil (4/1) solvent in the same way. On the day of the immunostimulation, measuring the skin thickness, clinically scoring and photographing were required, and the OXA application was carried out after the above work was completed.
Compound (I) was administered by gavage twice a day (PO, bid) from the 1st to 22nd day. The administration was performed in the morning and completed before measuring the skin thickness, clinically scoring, photographing, and the OXA immunostimulation. The interval between two administrations was 8 hours.
Body weight data were recorded twice a week.
Skin thickness (1.5 cm×1.5 cm, the modeling area) was measured with a Mitutoyo digital indicator (Mitutoyo digimatic indicator, Type ID-C, USA) from the 1st to 22nd day. The measurement was performed every two days. If the skin thickness measurement and the OXA immunostimulation were performed on the same day, the skin thickness measurement would be preferred.
The skin in the modeling area was clinically scored according to the skin scoring criteria in Table 12 from the 1st to 22nd day and evaluated every two days. If the skin clinical scoring and the OXA immunostimulation were performed on the same day, the skin clinical scoring would be preferred.
At the end of the study, the tissue in the modeling area was stained with hematoxylin eosin for the skin pathological scoring and the epidermal thickness measurement.
After the mice were sacrificed, the dorsal skin was removed and fixed in 10% neutral formalin for 24 hours. It was dehydrated, then embedded in paraffin and made into 4-micron sections. The skin sections were stained with hematoxylin eosin, and the inflammatory cell infiltration and tissue changes in the stratum corneum, the epidermis layer and the dermis layer were observed under the microscope, and the pathological scores were made. The scoring criteria were: inflammatory cell aggregation and edema, which were divided into slight 1 point, moderate 2 points, and severe 3 points; telangiectasia, which was divided into slight 1 point, moderate 2 points, and severe 3 points.
The specific scoring criteria of inflammatory cell aggregation were as follows: (1) slight-1 point: inflammatory cells occupied a small amount of <10% of the dermal area of the skin; (2) moderate-2 points: inflammatory cells occupied 10%-50% of the dermal area of the skin; (3) severe-3 points: the inflammatory cells occupied greater than 50% of the dermal area of the skin. […]

[2] = system: IMQ-induced mouse psoriasis model; assay: Pharmacodynamic test in the IMQ-induced mouse psoriasis model; type: in vivo, female Balb/c mice; set-up: key to Skin PASI score Erythema / Skin PASI score Scaling / Skin PASI score Thickness: PASI component score, 0-4 points; key to Skin PASI Total Score: sum of erythema, scaling, thickness scores (each 0-4); key to Skin pathological score: sum of histopathology criterion points; conditions: Dex 3 mpk PO qd
Description: The purpose of this test was to evaluate the pharmacodynamics of Compound (I) in the IMQ (5% imiquimod cream cream)-induced mouse psoriasis model. One of the clinical adverse effects of imiquimod is to induce the onset of psoriasis.
• Test medicament: Compound (I) • Positive control medicament: dexamethasone (Dex) • Vehicle: 0.4% Tween 80/0.5% methylcellulose.
• female Balb/c mice aged 5-6 weeks, number: 70.
The animals were randomly divided into seven groups according to the body weights on the day before the start of the experiment.
The animals were shaved on their back one day before applying the medicament, forming a skin exposure area having a size of about 2 cm×3 cm. The mice were induced by IMQ, and applied with 62.5 mg of 5% imiquimod cream on the bare back and the right ear at regular intervals every day for 14 days. Mice in the normal control group were applied with vaseline on the bare back and the right ear at regular intervals every day.
The skin thickness was measured daily from the first day of the test until the end of the test.
The skin thickness measurement method was as follows: the back skin and the subcutaneous tissue of the mouse were pinched with the thumb and the index finger of the left hand in the same direction as the mouse body; the skinfold thickness was measured 1 cm away from the pinched part of the left hand (near the center of the molding part) with a digital thickness gauge (with millesimal reading) held in the right hand (model BK-3281, manufacturer: Shanghai Niuhui). The thickness was in mm, and the actual thickness was the half of the measured thickness (the skin thickness=the measured value/2).
The ear thickness was measured daily (at the center of the auricle).
Skin photographs were taken daily from the first day of the test until the end of the test.
The clinical symptoms were evaluated with the PASI evaluation standard from three indicators of the erythema (Erythema), the scale (Scaling) and the skin thickness (Thickness), and scored with 0-4 points. The total score was obtained by summing the three scores. The PASI evaluation standard was as follows: 0, asymptomatic; 1, mild; 2, moderate; 3, severe; 4, extremely severe.
Erythema: 0—no erythema visible; 1—light red; 2—red; 3—dark red; 4—extremely dark red.
Scaling: 0—no visible scale on the skin surface; 1—part of the skin lesion surface covered with scales; 2—most of the skin lesion surface covered with scales; 3—almost all of the skin lesion region covered with scales; 4—all of the skin lesion region covered with scales.
Dryness and pruritus are not included in the total score.
On the 14th day of the test, the spleen weight was collected.
After the test, all mice were euthanized by excessive inhalation of carbon dioxide. The skin was collected and divided into four parts, one of which was fixed in a tissue fixative solution for 24 hours for the pathological is detection. It was dehydrated, then embedded in paraffin and made into 4-micron sections. Skin sections were stained with hematoxylin eosin to observe the infiltration of the stratum corneum, the epidermal layer, the dermis layer and the inflammatory cell. When measuring the thickness of the epidermal layer, the stained skin sections were scanned with a Leca Aperio CS2 scanner at 200×magnification, and then the histopathological changes were observed and scored.
The specific criteria of the pathological score were as follows: munro microabscess found in the epidermal layer 2.0 points; hyperkeratosis 0.5 points; parakeratosis 1.0 points; the thinning or disappearing of the granular layer 1.0 points; the thickening of acanthosis 1.0 points; the extension and fluctuation of cuticular process 0.5, 1.0 and 1.5 points respectively according to the mild, moderate and severe degrees. […]

[3] = Dexamethasone 3 mpk PO qd, 1st Day

With C[C@@H]1C[C@H]2[C@@H]3CCC4=CC(=O)C=C[C@]4(C)[C@@]3(F)[C@@H](O)C[C@]2(C)[C@@]1(O)C(=O)CO [Dexamethasone, reference compound] the Body weight [1, 3] was 18.08 ± 0.12 g, the Skin clinical score [1, 3] was 0.4 ± 0.16 and the “Skin thickness (modeling area)” value ([1]; Dexamethasone 3 mpk PO qd, 1st day) was 0.532 ± 0.012 mm. For the same compound, the Body weight ([1]; Dexamethasone 3 mpk PO qd, −7th Day) was 18.08 ± 0.12 g, the “Influence on the body weight of mice” value ([1]; dexamethasone 3 mpk PO qd, end of the study) was “decreased significantly” and the “Ear thickness Left” value ([2]; 1st Day) was 0.14 ± 0.00 mm. For the same compound, the “Ear thickness Right” value ([2]; 1st Day) was 0.14 ± 0.00 mm, the “Ear thickness Right-Left” value ([2]; 1st Day) was 0.00 ± 0.00 mm and the “Skin PASI Total Score” value ([2]; 1st Day) was 0.00 ± 0.00. The “Skin PASI score Erythema” value ([2]; 1st Day) was 0.00 ± 0.00, the “Skin PASI score Scaling” value ([2]; 1st Day) was 0.00 ± 0.00 and the “Skin PASI score Thickness” value ([2]; 1st Day) was 0.00 ± 0.00. For the same compound, the Skin thickness ([2]; 1st Day) was 0.32 ± 0.00 mm, the “Ear thickness Left” value ([2]; 14th Day) was 0.15 ± 0.00 mm and the “Ear thickness Right” value ([2]; 14th Day) was 0.33 ± 0.01 mm. The “Ear thickness Right-Left” value ([2]; 14th Day) was 0.18 ± 0.00 mm, the “Skin PASI Total Score” value ([2]; 14th Day) was 4.10 ± 0.18 and the “Skin PASI score Erythema” value ([2]; 14th Day) was 2.10 ± 0.10. For the same compound, the “Skin PASI score Scaling” value ([2]; 14th Day) was 1.10 ± 0.10, the “Skin PASI score Thickness” value ([2]; 14th Day) was 0.90 ± 0.10 and the Skin thickness ([2]; 14th Day) was 0.32 ± 0.01 mm. For the same compound, the Epidermal thickness ([2]; after 14 days of treatment) was 84.98 ± 7.40 μm, the “IL-6 content in skin (ELISA)” value ([2]; after 14 days of treatment) was 607.20 ± 76.89 pg/g and the Skin pathological score ([2]; after 14 days of treatment) was 3.95 ± 0.50. The Spleen weight ([2]; after 14 days of treatment) was 93.79 ± 4.64 mg, the “Spleen weight/body weight (spleen index)” value ([2]; after 14 days of treatment) was 6.17 ± 0.29 mg/g and the “TNF-alpha content in skin (ELISA)” value ([2]; after 14 days of treatment) was 1172.53 ± 115.72 pg/g.
